The record followed here is patent US7300946B2, “N-(substituted arylmethyl)-4-(disubstituted methyl) piperidines and pyridines” (Bayer CropScience AG, priority 2002, dated 2007).

Structures are written as SMILES.

The subject of the assay is tobacco budworm (Heliothis virescens [Fabricius]). The assay can be described thus: surface-treated diet test against the tobacco budworm. The format is in vivo. Conditions: tobacco budworm second instar larvae, 0.25 millimoles of candidate insecticide on the surface of the diet, five-day exposure; for Percent Mortality: compared to total number of insects infested; for Percent Growth Inhibition: inhibition of insect weight relative to untreated controls. Put shortly:
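Wheat germ artificial diet surface-treated with 40 µL of 50 mM DMSO stock diluted 1:7 in 1:1 water/acetone (0.25 millimolar on diet), or sub-multiples for rate tests. One second-instar larva per well, 25° C, 60% RH, 5 days; percent weight inhibition vs DMSO controls and percent mortality.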

In the case of `CCn1nnc(-c2ccc(CN3CCC(C(OC(=O)Nc4ccc(Cl)cc4)c4ccc(OC)cc4)CC3)cc2)n1` (stereo not drawn) [Compound 601], where the note is “surface-treated diet”, the “Percent Mortality” value turned out to be 100% and the “Percent Growth Inhibition” value turned out to be 100%.

For `O=C(Nc1cc(F)cc(F)c1)OC(c1ccc(OC(F)(F)F)cc1)C1CCN(Cc2ccc(Oc3cccc[n+]3[O-])cc2)CC1` (stereo not drawn) [Compound 709], the “Percent Mortality” value worked out at 100% and the “Percent Growth Inhibition” value is 100%.

Consider `CCCOc1ccc(CN2CCC(C(OC(=O)Nc3cccc(C(F)(F)F)c3)c3ccc(Cl)cc3)CC2)cc1` (stereo not drawn) [Compound 472], for which, under “surface-treated diet”, the “Percent Mortality” value came to 100% and the “Percent Growth Inhibition” value came to 100%.

With `Cc1ccc(CNC(=O)OC(c2ccc(C(F)(F)F)cc2)C2CCN(Cc3ccc(Oc4ccccn4)cc3)CC2)cc1` (stereo not drawn) [Compound 695], under “surface-treated diet”, the “Percent Mortality” value is 100% and the “Percent Growth Inhibition” value is recorded as 100%.

As to `Cn1nnc(-c2ccc(CN3CCC(C(NC(=O)c4ccc([N+](=O)[O-])cc4)c4ccc(OC(F)(F)F)cc4)CC3)cc2)n1` (stereo not drawn) [Compound 333], under “surface-treated diet”, the “Percent Mortality” value was found to be 17% and the “Percent Growth Inhibition” value worked out at 99%.

Regarding `CCn1nnc(-c2ccc(CN3CCC(C(OC(=O)Nc4cc(Cl)ccc4Cl)c4ccc(C(F)(F)F)cc4)CC3)cc2)n1` (stereo not drawn) [Compound 281], where the note is “surface-treated diet”, the “Percent Mortality” value was determined as 100% and the “Percent Growth Inhibition” value is 100%.

`Cn1nnc(-c2ccc(CN3CCC(C(NC(=O)c4ccc(F)cc4)c4ccc(OC(F)(F)F)cc4)CC3)cc2)n1` (stereo not drawn) [Compound 328]: for the setting “surface-treated diet”, the “Percent Mortality” value came out at 0% and the “Percent Growth Inhibition” value was found to be 95%.

Turning to `CCCOC(=O)Nc1ccc(C[N+]2([O-])CCC(=C(c3ccc(C(F)(F)F)cc3)c3ccc(C(F)(F)F)cc3)CC2)cc1` (stereo not drawn) [Compound 102], under “surface-treated diet”, the “Percent Mortality” value stood at 100% and the “Percent Growth Inhibition” value amounted to 100%.

As to `CCON=Cc1ccc(CN2CCC(C(OC(=O)Nc3ccc(Cl)cc3)c3ccc(Cl)cc3Cl)CC2)cc1` (stereo not drawn) [Compound 529], where the note is “surface-treated diet”, the “Percent Mortality” value turned out to be 100% and the “Percent Growth Inhibition” value is on record as 100%.

On to `COc1ccc(C(=O)NC(c2ccc(OC(F)(F)F)cc2)C2CCN(Cc3ccc(-c4nnn(C)n4)cc3)CC2)cc1` (stereo not drawn) [Compound 331], for which, under “surface-treated diet”, the “Percent Mortality” value is reported as 67% and the “Percent Growth Inhibition” value is given as 98%.

As to `CNC(=S)OC(c1ccc(C(F)(F)F)cc1)C1CCN(Cc2ccc(Oc3ccccn3)cc2)CC1` (stereo not drawn) [Compound 772], the “Percent Mortality” value was 0% and the “Percent Growth Inhibition” value is listed as 78%.

`CCn1nnc(-c2ccc(CN3CCC(C(OC(=O)Nc4cc(F)cc(F)c4)c4ccc(Oc5ccccc5)cc4)CC3)cc2)n1` (stereo not drawn) [Compound 619]: under “surface-treated diet”, the “Percent Mortality” value was determined as 17% and the “Percent Growth Inhibition” value is 100%.

Consider `CCON=Cc1ccc(CN2CCC(C(OC(=O)Nc3cccc(F)c3)c3ccc(F)cc3)CC2)cc1` (stereo not drawn) [Compound 527], for which, under “surface-treated diet”, the “Percent Mortality” value is 100% and the “Percent Growth Inhibition” value worked out at 100%.

For `O=C(Nc1cc(F)cc(F)c1)OC(c1ccc(C(F)(F)F)cc1)C1CCN(Cc2ccc(S(=O)(=O)NC3CCCC3)cc2)CC1` (stereo not drawn) [Compound 542], where the note is “surface-treated diet”, the “Percent Mortality” value is recorded as 0% and the “Percent Growth Inhibition” value was found to be 43%.

Consider `O=C(Nc1cc(F)cc(F)c1)OC(c1ccc(C(F)(F)F)cc1)C1CCN(Cc2ccc(Oc3ncccn3)cc2)CC1` (stereo not drawn) [Compound 731], for which the “Percent Mortality” value is given as 100% and the “Percent Growth Inhibition” value is given as 100%.

Consider `FC(F)(F)c1ccc(C(=C2CCN(Cc3ccc(-c4ccccn4)cc3)CC2)c2ccc(C(F)(F)F)cc2)cc1` [Compound 807], for which the “Percent Mortality” value was 100% and the “Percent Growth Inhibition” value was determined as 100%.

With `CCON=Cc1ccc(CN2CCC(C(OC(=O)Nc3c(F)c(F)c(F)c(F)c3F)c3ccc(C(F)(F)F)cc3)CC2)cc1` (stereo not drawn) [Compound 202], under “surface-treated diet”, the “Percent Mortality” value is listed as 100% and the “Percent Growth Inhibition” value was 100%.

In the case of `CNC(=O)Oc1ccc(C[N+]2([O-])CCC(=C(c3ccc(C(F)(F)F)cc3)c3ccc(C(F)(F)F)cc3)CC2)cc1` (stereo not drawn) [Compound 828], the “Percent Mortality” value is given as 100% and the “Percent Growth Inhibition” value worked out at 100%.

Consider `CCON=Cc1ccc(CN2CCC(C(OC(=O)Nc3ccc(Cl)cc3C(F)(F)F)c3ccc(C(F)(F)F)cc3)CC2)cc1` (stereo not drawn) [Compound 206], for which, for the setting “surface-treated diet”, the “Percent Mortality” value is reported as 100% and the “Percent Growth Inhibition” value is reported as 100%.

Turning to `CNC(=O)Oc1ccc(C[N+]2([O-])CCC(=C(c3ccc(OC(F)(F)F)cc3)c3ccc(OC(F)(F)F)cc3)CC2)cc1` (stereo not drawn) [Compound 829], the “Percent Mortality” value is 100% and the “Percent Growth Inhibition” value is 100%.

For the molecule `CC(C)OC(=O)c1ccc(C[N+]2([O-])CCC(=C(c3ccc(C(F)(F)F)cc3)c3ccc(C(F)(F)F)cc3)CC2)cc1` (stereo not drawn) [Compound 100], where the note is “surface-treated diet”, the “Percent Mortality” value stood at 100% and the “Percent Growth Inhibition” value was 100%.

Consider `[O-][N+]1(Cc2ccc(Oc3ncccn3)cc2)CCC(=C(c2ccc(C(F)(F)F)cc2)c2ccccc2Cl)CC1` (stereo not drawn) [Compound 845], for which the “Percent Mortality” value was determined as 83% and the “Percent Growth Inhibition” value is given as 100%.

Consider `N#Cc1ccc(Oc2ccc(C[N+]3([O-])CCC(=C(c4ccc(C(F)(F)F)cc4)c4ccc(C(F)(F)F)cc4)CC3)cc2)nc1` (stereo not drawn) [Compound 111], for which, where the note is “surface-treated diet”, the “Percent Mortality” value amounted to 100% and the “Percent Growth Inhibition” value worked out at 100%.

Turning to `N#Cc1ccc(Oc2ccc(CN3CCC(C(OC(=O)Nc4ccc(Cl)cc4)c4ccc(OC(F)(F)F)cc4)CC3)cc2)nc1` (stereo not drawn) [Compound 708], the “Percent Mortality” value is listed as 100% and the “Percent Growth Inhibition” value came out at 100%.

For the molecule `CC(C)OC(=O)Nc1ccc(CN2CCC(C(OC(=O)Nc3cc(F)cc(F)c3)c3ccc(F)cc3)CC2)cc1` (stereo not drawn) [Compound 505], under “surface-treated diet”, the “Percent Mortality” value is recorded as 100% and the “Percent Growth Inhibition” value came out at 100%.

Turning to `CC(C)OC(=O)c1ccc(CN2CCC(C(OC(=O)Nc3cc(F)cc(F)c3)c3ccc(C(F)(F)F)cc3)CC2)cc1` (stereo not drawn) [Compound 493], under “surface-treated diet”, the “Percent Mortality” value was found to be 100% and the “Percent Growth Inhibition” value is given as 100%.

Regarding `O=C(Nc1ccc(Cl)cc1)OC(c1ccc(C(F)(F)F)cc1)C1CCN(Cc2ccc(-c3ccccn3)cc2)CC1` (stereo not drawn) [Compound 627], where the note is “surface-treated diet”, the “Percent Mortality” value is recorded as 100% and the “Percent Growth Inhibition” value is recorded as 100%.

Turning to `CCn1nnc(-c2ccc(CN3CCC(C(OC(=O)Nc4ccc(I)cc4)c4ccc(OC(F)(F)F)cc4)CC3)cc2)n1` (stereo not drawn) [Compound 271], where the note is “surface-treated diet”, the “Percent Mortality” value worked out at 100% and the “Percent Growth Inhibition” value came out at 100%.

For `O=C(Nc1ccc(Cl)cc1)OC(c1ccc(C(F)(F)F)cc1)C1CCN(Cc2ccc(O)cc2)CC1` (stereo not drawn) [Compound 463], under “surface-treated diet”, the “Percent Mortality” value is given as 0% and the “Percent Growth Inhibition” value is on record as 65%.

Regarding `CCn1nnc(-c2ccc(CN3CCC(C(OC(=O)Nc4ccc(Cl)cc4)c4ccccc4)CC3)cc2)n1` (stereo not drawn) [Compound 564], for the setting “surface-treated diet”, the “Percent Mortality” value was found to be 100% and the “Percent Growth Inhibition” value stood at 100%.

For `CCCOc1ccc(CN2CCC(C(OC(=O)Nc3ccc(F)cc3)c3ccc(F)cc3)CC2)cc1` (stereo not drawn) [Compound 476], where the note is “surface-treated diet”, the “Percent Mortality” value is reported as 100% and the “Percent Growth Inhibition” value amounted to 100%.

Turning to `CCn1nnc(-c2ccc(CN3CCC(C(OC(=O)Nc4ccc(F)cc4)c4ccc(OC(F)(F)F)cc4)CC3)cc2)n1` (stereo not drawn) [Compound 277], under “surface-treated diet”, the “Percent Mortality” value was found to be 100% and the “Percent Growth Inhibition” value was 100%.

For the molecule `CCn1nnc(-c2ccc(CN3CCC(C(OC(=O)Nc4ccc(Cl)cc4Cl)c4ccc(C(F)(F)F)cc4)CC3)cc2)n1` (stereo not drawn) [Compound 280], where the note is “surface-treated diet”, the “Percent Mortality” value is recorded as 100% and the “Percent Growth Inhibition” value was found to be 100%.

In the case of `CCn1nnc(-c2ccc(CN3CCC(C(OC(=O)Nc4cccc(C(F)(F)F)c4)c4ccc(Oc5ccccc5)cc4)CC3)cc2)n1` (stereo not drawn) [Compound 620], where the note is “surface-treated diet”, the “Percent Mortality” value came out at 0% and the “Percent Growth Inhibition” value is reported as 29%.

For `O=C(Nc1ccncc1)OC(c1ccc(C(F)(F)F)cc1)C1CCN(Cc2ccc(Oc3ccccn3)cc2)CC1` (stereo not drawn) [Compound 450], where the note is “surface-treated diet”, the “Percent Mortality” value was found to be 0% and the “Percent Growth Inhibition” value turned out to be 62%.

For the molecule `O=C(Nc1ccc(Cl)cc1)OC(c1ccc(C(F)(F)F)cc1)C1CCN(Cc2ccc(-c3ccccc3)cc2)CC1` (stereo not drawn) [Compound 543], for the setting “surface-treated diet”, the “Percent Mortality” value was found to be 100% and the “Percent Growth Inhibition” value worked out at 100%.

As for `CCON=Cc1ccc(CN2CCC(C(OC(=O)Nc3ccc(F)cc3F)c3ccc(C(F)(F)F)cc3)CC2)cc1` (stereo not drawn) [Compound 193], under “surface-treated diet”, the “Percent Mortality” value was 100% and the “Percent Growth Inhibition” value is 100%.

Turning to `O=C(Nc1cc(F)cc(F)c1)OC(c1ccc(C(F)(F)F)cc1)C1CCN(Cc2ccc(Oc3ncccc3Cl)cc2)CC1` (stereo not drawn) [Compound 683], where the note is “surface-treated diet”, the “Percent Mortality” value is 100% and the “Percent Growth Inhibition” value was determined as 100%.

As for `O=C(Nc1cc(F)cc(F)c1)OC(c1cccc(C(F)(F)F)c1)C1CCN(Cc2ccc(Oc3ccccn3)cc2)CC1` (stereo not drawn) [Compound 654], under “surface-treated diet”, the “Percent Mortality” value is 100% and the “Percent Growth Inhibition” value was determined as 100%.

As for `CCn1nnc(-c2ccc(CN3CCC(C(OC(=O)Nc4ccc(F)c(F)c4)c4ccc(Oc5ccccc5)cc4)CC3)cc2)n1` (stereo not drawn) [Compound 618], for the setting “surface-treated diet”, the “Percent Mortality” value amounted to 100% and the “Percent Growth Inhibition” value is recorded as 100%.

For `Cn1nnc(-c2ccc(CN3CCC(C(NC(=O)Nc4ccc(F)cc4)c4ccc(OC(F)(F)F)cc4)CC3)cc2)n1` (stereo not drawn) [Compound 340], for the setting “surface-treated diet”, the “Percent Mortality” value came to 83% and the “Percent Growth Inhibition” value was found to be 100%.

In the case of `CCON=Cc1ccc(CN2CCC(C(OC(=O)Nc3cccc4c3CC=CC4)c3ccc(C(F)(F)F)cc3)CC2)cc1` (stereo not drawn) [Compound 214], where the note is “surface-treated diet”, the “Percent Mortality” value turned out to be 0% and the “Percent Growth Inhibition” value was determined as 100%.
